Reference: publication PMC7815808, “Enzyme and lateral flow monoclonal antibody-based immunoassays to simultaneously determine spirotetramat and spirotetramat-enol in foodstuffs” (Scientific Reports, 2021)

How the values were obtained:
mAbs to SP and SP-enol = assay: Direct cELISA, binding of analytes and other pesticides by the generated mAbs; parameters: species or system mouse; settings: homologous tracer, all mAbs; read-out: IC50 values with the homologous tracer
From the text: Six mouse mAbs were obtained; three were from immunogen BSA‒SPm—named SPm#23, SPm#25, and SPm#216—and three from conjugate BSA‒SPo—named SPo#227, SPo#237, and SPo#243. These antibodies contained κ light chains and were of the IgG1 isotype, except mAb SPm#25 which was IgG2a. The affinity to SP and SP-enol was studied by checkerboard cELISA in the capture antibody-coated direct format, using homologous and heterologous enzyme tracers (with the same or different hapten, respectively, than the immunizing conjugate). SP and SP-enol standards were prepared in PBS (10 mM phosphate buffer, pH 7.4, with 140 mM NaCl) and tracer solutions for the competitive step were prepared in PBS-T (PBS containing 0.05% (v/v) Tween-20). […] Tracers with linker site heterologies were not bound by the antibodies. The only exception was mAb SPm#23 which did recognize the heterologous HRP‒SPh conjugate. For this antibody, the spacer arm of hapten SPh was located at a more proximal site than that of hapten […]. The lowest IC50 value with the homologous tracer was around 3 nM for SP-enol whereas binding to SP was moderate (IC50 values were higher than 30 nM).
(§1) Concerning specificity, the two assayed immunogens (BSA‒SPm and BSA‒SPo) afforded equivalent results. […] Cross-reactivity with the main SP metabolites was studied with antibody SPm#23.
(§2) Microplates were precoated with GAM in order to immobilise the mAb. The competitive step was carried out by mixing the analyte solution or diluted sample with the enzyme tracer solution. Standard curves were built in borosilicate glass tubes from 0.03 to 30 nM by a threefold serial dilution of the most concentrated standard solution, and a blank (no analyte) was also run. Concentrated stock solutions of the analytes in anhydrous DMF were used to prepare the most concentrated standard solution—the DMF concentration was always lower than 0.1% (v/v). The complete immunoassay procedure can be found in the Supplementary Information file.
(§3) Table S1. Specificity of the
(§4) 7. Direct competitive ELISA procedure
(§5) The same protocol previously described for this format was applied.7 Briefly, plates were coated with 100 µL per well of 1 µg/mL GAM solution in carbonate‒bicarbonate buffer, pH 9.6, by overnight incubation at 4 °C. Wells were washed four times with washing solution (150 mM NaCl with 0.05% (v/v) Tween-20) after each incubation step. Then, 100 µL per well of specific mAb solution in PBS-T was added and plates were incubated at room temperature during 1 h. The competitive reaction was carried out by adding 50 µL per well of analyte solution or diluted sample and 50 µL per well of tracer […]
(§6) enzyme substrate solution (2 mg/mL o-phenylendiamine and 0.012% (v/v) H2O2 in 25 mM sodium citrate and 62 mM sodium phosphate buffer, pH 5.4). Ten minutes later, the enzyme reaction was stopped by adding 100 µL per well of 1 M H2SO4.
8. Influence of pH and ionic strength […]
(§7) 7 E. Ceballos-Alcantarilla, D. López-Puertollano, C. Agulló, A. Abad-Fuentes, A. Abad-Somovilla, J. V. Mercader.
Combined heterologies for monoclonal antibody-based immunoanalysis of fluxapyroxad. Analyst 143, 5718‒

mAb SPm#23 [1] = assay: Antibody specificity (cross-reactivity) of the selected mAb; type: binding, mouse; settings: cross-reactivity of the selected mAb, SP-enol = 100; n=3
Experimental: as §1, §2, §3, §4, §5, §6
8. Influence of pH and ionic strength
Figure S5. Influence of pH and ionic strength over the Amax and IC50 values of the spirotetramat-enol standard curve of the studied direct cELISA.
as §7
Combined heterologies for monoclonal antibody-based immunoanalysis of fluxapyroxad. Analyst 143, 5718‒ […]

mAb SPm#23 [2] = assay: Optimized direct cELISA (mAb SPm#23 with tracer HRP–SPh), SP-enol standard curve; type: binding, mouse; settings: direct cELISA, heterologous bioconjugate
Experimental: (§8) In order to simultaneously quantify SP and SP-enol contents in a sample, an in situ procedure for treating the sample with alkaline solution in order to hydrolyse SP into SP-enol was assessed. SP and SP-enol standard solutions were prepared in MilliQ water and diluted fivefold with 40 mM NaOH. The mixtures were incubated 10 min at room temperature and diluted twofold with dilution buffer (200 mM Tris·HCl buffer, pH 8.0, containing 280 mM NaCl). For the competitive step, enzyme tracer solutions were prepared in TBS-T (100 mM Tris·HCl buffer, pH 8.0, containing 140 mM NaCl and 0.05% (v/v) Tween-20). As shown in the inset of Table 2, the obtained standard curves of SP-enol and hydrolysed SP were almost identical. This hydrolysis procedure was validated by HPLC‒MS/MS. SP and SP-enol aqueous solutions (50 µg/mL) were treated with NaOH and, 10 min later, the pH was lowered as previously described. Then, 10 µL of hydrolysed and diluted sample was transferred into 990 µL of acetonitrile and dried with anhydrous MgSO4. Controls without the hydrolysis step were also evaluated. Finally, the contents of SP, SP-enol, SP-keto, and SP-mono in the organic extracts were quantified (Table 2). […] Those samples were also analysed with the studied direct cELISA by running SP-enol standard solutions that had been incubated in NaOH and diluted with dilution buffer like the samples. […] Consequently, the developed hydrolysis procedure seemed to perform adequately for SP and SP-enol residue quantification as SP-enol equivalents.
The sigmoidal inhibition curve obtained for SP-enol and the final assay conditions of the developed direct cELISA are provided in Table 3. […] The Amax value of the standard curve was near 1.0, the slope was − 1.4, and the background signal was negligible.
as §2
The absorbance of each microplate well was immediately read at 492 nm using a reference wavelength at 650 nm, and values were processed with KCJunior software from BioTek Instruments. The SigmaPlot Version 14.0 was used to fit the experimental values to a standard four-parameter logistic curve. Immunoassay sensitivity was estimated as the concentration of analyte affording a 50% decrease (IC50) of the maximum absorbance (Amax) obtained in the absence of analyte. The LOD of the assay was defined as the IC10 of the sigmoidal inhibition curve. The LOQ was experimentally determined as the lowest analyte concentration that provided accurate and precise results using fortified food samples. […]
as §4
The same protocol previously described for this format was applied.7 Briefly, plates were coated with 100 µL per well of 1 µg/mL GAM solution in carbonate‒bicarbonate buffer, pH 9.6, by overnight incubation at 4 °C. Wells were washed four times with washing solution (150 mM NaCl with 0.05% (v/v) Tween-20) after each incubation step. […]

[3] = Spirotetramat hydrolysis study by HPLC‒MS/MS; type: physicochemical; parameters: content found by HPLC–MS/MS, sample treatment A / content found by HPLC–MS/MS, sample treatment B / content found by HPLC–MS/MS, sample treatment C / content found by HPLC–MS/MS, sample treatment D: unit not given beside the values
Experimental: as §8
SP, SP-enol, SP-keto, and SP-mono standard solutions were prepared by serial dilution in acetonitrile from 1 to 2500 μg/L in amber glass vials and kept at − 20 °C. The injection volume was 5 µL and the column temperature was 45 °C. The analysis was carried out using a C18 reverse phase column with a gradient of 0.2% (v/v) formic acid in water (A) and acetonitrile (B) as mobile phase at a flow rate of 0.3 mL/min. The elution profile was 0‒3 min, from 5% B to 95% B, 3.0‒3.5 min, 95% B, 3.5‒3.6 min, from 95% B to 5% B, and 3.6‒8 min, 5% B. Spectra were acquired in positive ionization multiple reaction monitoring mode with interchannel delay of 0.02 s.

[4] = Spirotetramat hydrolysis study by direct cELISA; type: physicochemical
Experimental: as §8

[5] = parameters: method as in PMID 23436572; settings: cited from earlier work
mammals = system: mammals; parameters: method as in earlier work; settings: cited from earlier work

CCOC(=O)OC1=C(c2cc(C)ccc2C)C(=O)N[C@]12CC[C@@H](OC)CC2 [SP, ethyl cis-8-methoxy-2-oxo-3-(2,5-xylyl)-1-azaspiro[4.5]dec-3-en-4-yl carbonate]
IC50 (mAbs to SP and SP-enol): > 30 nM | CR (%) (mAb SPm#23 [1]): 11.8% | IC50 value for the sum of spirotetramat and spirotetramat-enol (mAb SPm#23 [2]): 0.1 ng/mL | fate on incubation in basic solution ([3]; 40 mM NaOH, 10 min, room temperature, HPLC‒MS/MS): completely hydrolysed into SP-enol | content found by HPLC–MS/MS, sample treatment A ([3]; A, SP hydrolysed (40 mM NaOH, 10 min, room temperature)): 0.03 | Recovery (%), sample treatment A ([3]; A, SP hydrolysed, HPLC–MS/MS): 93.4% | content found by HPLC–MS/MS, sample treatment B ([3]; B, SP without hydrolysis): 109.4 | Recovery (%), sample treatment B ([3]; B, SP without hydrolysis, HPLC–MS/MS): 88.8% | content found by HPLC–MS/MS, sample treatment C ([3]; C, SP-enol hydrolysed (40 mM NaOH, 10 min, room temperature)): 0.02 | content found by HPLC–MS/MS, sample treatment D ([3]; D, SP-enol without hydrolysis): 0.00 | recovery measured as SP-enol by direct cELISA ([4]; incubated in NaOH solution (samples A and C)): 85.0% | recovery measured as SP-enol by direct cELISA ([4]; non-hydrolysed control solution (samples B and D)): could not be quantified | hydrolysis at basic pH values [5]: quickly hydrolyses to form SP-enol | eye irritation (mammals): can be an eye irritant | skin-sensitization (mammals): may cause skin-sensitization | toxicity in mammals (mammals): does not show severe toxicity
